Reference: patent US20250003994A1, “DEVICE AND METHOD FOR TREATING TISSUE OXYGEN DEFICIENT CONDITIONS” (IP SCIENCE LIMITED, priority 2021, published 2025)

Key:
Format in all cases: in vivo, human
[1] = test system: clinically healthy volunteers; test: Oxygen carrying capacity of plasma lipoproteins (OCCL) by catalymetry assay, one-month intake, Example 2.4; settings: for Effect of regular intake on OCCL (in words): 4 weeks daily intake
Experimental: 6 healthy volunteers (HV, 42-61 years old) and 4 CAD patients, eligible for the treadmill test (age 45-59 years old) were recruited for this study. Apart from assessing changes their electrocardiogram (ECG), pulse and blood pressure, samples and level of oxygen carrying capacity of plasma lipoproteins, OCCL, from venous blood was analyzed prior to the test and within 3-4 minutes afterward. The measurement was conducted using a catalymetry assay. In short, 10 μl of citrate plasma was added to 0.98 ml cuvette of 0.05 M phosphate buffer with 0.1 mM sodium ethylenediamine tetraacetic acid (EDTA-Na), containing 10^−6 M phenazine methosulphate and 10^−4 M nitro blue tetrazolium chloride (NBT). The reaction was initiated by adding 10 μl of 10^−4 M NADH.
The difference in absorption at λ=560 nm between starting point and after 60 seconds was measured by spectroscopy. This difference was used to measure oxygen-depended reduction of NBT. The results of this reaction were compared with the control reaction where instead of plasma 10 μl of the reaction buffer was added. The difference in the reduction of NBT with the analyzed sample and the control was used to calculate the amount of O2 in added plasma lipoproteins.
In this section the effects of regular intake of validated bioactive nutraceuticals on blood OCCL and tissue oxygen saturation (StO2) was evaluated.
(§1) For this study […] clinically healthy volunteers were recruited (age 35-57 years old), 30 male and 34 female). The subjects had not taken any medication or dietary supplements prior to the experiment. The volunteers were randomized and divided into 7 groups of 8 persons each. The participants were given a one-month supply of a particular nutraceutical or pharmaceutical. […] The daily dose for each product was taken in 1 capsule with the main meal of the day. The blood and StO2 were analyzed prior the trial and after (4 weeks). OCCL was analyzed as described above.

[2] = test system: clinically healthy volunteers; test: Tissue oxygen saturation (StO2) by near-infrared spectroscopy with stagnant ischemia, Example 2.4; settings: for StO2: area under hyperemic curve post occlusion; for Effect of regular intake on StO2 / peripheral tissue oxygenation (in words): 4 weeks daily intake
Experimental: as §1
Thenar eminence and forearm muscles of the patients were used as a tissue target for the assessment of StO2, or combined level of oxygenated hemoglobin and myoglobin. StO2 was assessed by continuous wavelength near-infrared spectroscopy, NIRS, with wide-gap second-derivative (In Spectra, Hutchinson Technology, MN, USA), as known in the art. The measurements were taken at different time points. The recording was initiated after 15 min of rest in a supine position, before occlusion of the brachial artery. It was then continued during stagnant ischemia induced by rapidly inflating a cuff to 50 mm Hg above systolic BP. The ischemia lasted for 3 min, and the recording period lasted for an additional 5 min, until StO2 was stabilized
The area under the hyperemic curve, AUC, of the recorded signal for the settling time in the post occlusion period was then calculated in AUC mm, or % O2/min. All body and vascular parameters were recorded in the morning between 8 and 10 a.m.

[3] = test system: clinically healthy volunteers; test: Blood LDL concentration, one-month intake, Example 2.4
From the text: Since oxygen solubility is higher in lipids than in aqueous media, it was interesting to examine a possible link between changes in OCCL and lipoprotein concentration in blood.
as §1

[4] = 4 w, daily dose in 1 capsule with main meal
[5] = 0 w (prior the trial), 8 per group

With CCC(C)(C)C(=O)O[C@H]1C[C@@H](C)C=C2C=C[C@H](C)[C@H](CC[C@@H]3C[C@@H](O)CC(=O)O3)[C@H]21 [Simvastatin, reference compound] the OCCL ([1]; 0 w (prior the trial)) was 451 ± 51 ΔE at λ = 560 nm × 10^3, the OCCL [1, 4] was 504 ± 53 ΔE at λ = 560 nm × 10^3 and the StO2 ([2]; 0 w (prior the trial)) was 70 ± 0.72 AUC mm. The StO2 [2, 4] was 73 ± 0.81 AUC mm.
For COC1=C(OC)C(=O)C(C/C=C(\C)CC/C=C(\C)CC/C=C(\C)CC/C=C(\C)CC/C=C(\C)CC/C=C(\C)CC/C=C(\C)CC/C=C(\C)CC/C=C(\C)CCC=C(C)C)=C(C)C1=O [Coenzyme Q10], the OCCL ([1]; 0 w (prior the trial)) was 505 ± 66 ΔE at λ = 560 nm × 10^3, the OCCL [1, 4] was 593 ± 64 ΔE at λ = 560 nm × 10^3 and the “Effect of regular intake on OCCL (in words)” value (“Effect … on OCCL (in words)” for short) [1] was “increase in OCCL”. The StO2 ([2]; 0 w (prior the trial)) was 75.0 ± 7.4 AUC mm, the StO2 [2, 4] was 84.0 ± 8.5 AUC mm and the “Effect of regular intake on StO2 / peripheral tissue oxygenation (in words)” value [2] was “significant improvement of peripheral tissue oxygenation”. It also gave an LDL [3, 5] of 143 ± 5.7 mg/dL and an LDL [3, 4] of 140 ± 4.2 mg/dL.
In the case of CC(C)=CCC/C(C)=C/C=C/C(C)=C/C=C/C(C)=C/C=C/C=C(C)/C=C/C=C(C)/C=C/C=C(\C)CCC=C(C)C [Lycopene], the OCCL ([1]; 0 w (prior the trial)) is reported as 648 ± 41 ΔE at λ = 560 nm × 10^3, the OCCL [1, 4] is reported as 786 ± 39 ΔE at λ = 560 nm × 10^3 and the StO2 ([2]; 0 w (prior the trial)) is reported as 75 ± 0.73 AUC mm. For the same compound, the StO2 [2, 4] was 85 ± 0.61 AUC mm, the LDL [3, 5] was 156 ± 6.1 mg/dL and the LDL [3, 4] was 135 ± 7.0 mg/dL.
In the case of C=C1CC[C@H](O)C/C1=C/C=C1\CCC[C@]2(C)[C@@H]([C@H](C)CCCC(C)C)CC[C@@H]12 [Vitamin D3], the OCCL ([1]; 0 w (prior the trial)) is reported as 412 ± 48 ΔE at λ = 560 nm × 10^3, the OCCL [1, 4] is reported as 443 ± 51 ΔE at λ = 560 nm × 10^3 and the “Effect … on OCCL (in words)” value [1] is reported as “did not affect”. For the same compound, the StO2 ([2]; 0 w (prior the trial)) was 66.8 ± 6.0 AUC mm, the StO2 [2, 4] was 71.2 ± 6.8 AUC mm and the “Effect of regular intake on StO2 / peripheral tissue oxygenation (in words)” value [2] was “did not affect”. The LDL [3, 5] was 156 ± 8.4 mg/dL and the LDL [3, 4] was 144 ± 5.9 mg/dL.
With CC1=C(/C=C/C(C)=C/C=C/C(C)=C/C=C/C=C(C)/C=C/C=C(C)/C=C/C2=C(C)C(=O)[C@@H](O)CC2(C)C)C(C)(C)C[C@H](O)C1=O [Astaxanthin] the OCCL ([1]; 0 w (prior the trial)) was 539 ± 52 ΔE at λ = 560 nm × 10^3, the OCCL [1, 4] was 770 ± 57 ΔE at λ = 560 nm × 10^3 and the StO2 ([2]; 0 w (prior the trial)) was 77 ± 0.74 AUC mm. For the same compound, the StO2 [2, 4] was 87 ± 0.84 AUC mm, the LDL [3, 5] was 153 ± 7.3 mg/dL and the LDL [3, 4] was 151 ± 6.2 mg/dL.
CC/C=C\C/C=C\C/C=C\C/C=C\C/C=C\C/C=C\CCC(=O)O [DHA Omega 3] was tested, and the OCCL ([1]; 0 w (prior the trial)) was 626 ± 34 ΔE at λ = 560 nm × 10^3, the OCCL [1, 4] was 639 ± 42 ΔE at λ = 560 nm × 10^3 and the “Effect … on OCCL (in words)” value [1] was “did not affect”. The StO2 ([2]; 0 w (prior the trial)) was 74 ± 0.71 AUC mm, the StO2 [2, 4] was 76 ± 0.92 AUC mm and the “Effect of regular intake on StO2 / peripheral tissue oxygenation (in words)” value [2] was “did not affect”. For the same compound, the LDL [3, 5] was 155 ± 9.2 mg/dL and the LDL [3, 4] was 154 ± 7.5 mg/dL.
